Literature values as cited in US9522876B2, “Cytotoxic and anti-mitotic compounds, and methods of using the same” (ZYMEWORKS INC., priority 2013, dated 2016).

Test system: cells
Settings: related art

Row | SMILES | anti-mitotic activity
1 | CN[C@H](C(=O)N[C@H](C(=O)N(C)[C@H](/C=C(\C)C(=O)O)C(C)C)C(C)(C)C)C(C)(C)c1ccccc1 [HT1-286] | potent anti-mitotic activity
2 | CN[C@H](C(=O)N[C@H](C(=O)N(C)[C@H](/C=C(\C)C(=O)O)C(C)C)C(C)(C)C)C(C)(C)c1cn(C)c2ccccc12 [hemiasterlin] | causes microtubule depolymerization and mitotic arrest in cells
